{
  "source": "patent US20200003795A1",
  "about": "“DETERMINATION OF ANALYTES IN LIQUID SAMPLES BY MASS SPECTROMETRY” (Quest Diagnostics Investments Incorporated, priority 2001, published 2020)",
  "origin": "cited, not measured here",
  "key": {"[1]": {"conditions": "circulating drug, at a therapeutic level of 1-10 μg/mL"}, "[2]": {"experiment": "not given", "remark": "listed apart in the source"}},
  "note": "Like-named read-outs stand apart in the source and are kept apart here.",
  "data": [
    {"smiles": "Nc1nnc(-c2cccc(Cl)c2Cl)c(N)n1", "note": "[lamotrigine, 6-(2,3-dichlorophenyl)-1,2,4-triazine-3,5-diamine]", "values": [
      {"measurement": "bound to protein", "setting": "[1]", "result": "about 55%"},
      {"measurement": "therapeutic level", "setting": "circulating", "result": "1 to 10", "unit": "µg/mL"},
      {"measurement": "half-life", "setting": "multiple doses", "result": "7.5 to 23.1", "unit": "h"},
      {"measurement": "half-life", "setting": "single dose", "result": "6.4 to 30.4", "unit": "h"}
    ]},
    {"smiles": "CO[C@H]1C[C@@H]2CC[C@@H](C)[C@@](O)(O2)C(=O)C(=O)N2CCCC[C@H]2C(=O)O[C@H]([C@H](C)C[C@@H]2CC[C@@H](O)[C@H](OC)C2)CC(=O)[C@H](C)/C=C(\\C)[C@@H](O)[C@@H](OC)C(=O)[C@H](C)C[C@H](C)/C=C/C=C/C=C/1C", "note": "[sirolimus]", "values": [
      {"measurement": "Therapeutic levels in blood", "setting": "[2]; blood, trough", "result": "3 to 18", "unit": "ng/mL"},
      {"measurement": "mean-time-to-peak concentration", "setting": "[2]; on administration", "result": "1 to 2", "unit": "h"}
    ]}
  ]
}
